Experimental data reported in patent US8829014B2, “Thiazole and thiophene analogues, and their use in treating autoimmune diseases and cancers” (Board of Supervisors of Louisiana State University and …, priority 2006, dated 2014).

Assays:
AP-1 = AP-1 inhibitor screen: basal AP-1-dependent luciferase expression in HEK/AP-1 cell line; assay type: cell-based; conditions: 1 uM, determined as described in Example 398; for inhibition at 1 µM: AP1
Method in brief: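 Compound effects on unstimulated reporter signal were tested: 1.0 μM compound (0.3% DMSO) for 48 hr on HEK cells bearing an AP-1 (TGACTAA ×3)-luciferase construct, seeded 24 hr earlier. Triplicate luminescence means were normalized to DMSO-only wells; dose-response experiments were repeated 2–4 times.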

NF-κB = NF-κB inhibitor screen: basal NF-κB-dependent luciferase expression in HEK/NF-κB cell line; assay type: cell-based; conditions: 1 uM, determined as described in Example 398; for inhibition at 1 µM: read-out: NFkB inhibition @ 1 uM
Method in brief: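 Basal NF-κB-driven luciferase (six-copy element, stable HEK293 line) was read with Brite-Glo. Compound was added in 0.3% DMSO 24 h post-plating, initially at 1.0 μM and then across 10–3300 nM in six steps, in triplicate wells. Signals were expressed relative to DMSO or to the lowest concentration tested.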

carageenan-induced edema = assay: Carrageenan-induced rat paw edema test (anti-inflammatory activity); assay type: in vivo, Sprague-Dawley rats; conditions: carrageenan-induced rat paw edema, defined in Example 397; for inhibition in vivo at 50 mg/kg: Rattus norvegicus, po, 3 h, read-out: % Protection
Method in brief: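 Edema was raised by sub-plantar injection of 1% carrageenan into the right hind paw, 1 h after dosing 18 h-fasted male/female Sprague-Dawley rats (150-250 g) with 50 mg/kg p.o. in 0.1% CMC. Swelling was measured by displacement 3 h later and expressed as % protection against saline control.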

Molecule | melting point [°C] | also measured
COc1cccc(-n2c(-c3sc(Nc4ccc(Cl)cc4)nc3C)nc3ccccc3c2=O)c1 [Example 211, 2-[2-(4-Chlorophenylamino)-4-methyl-thiazol-5-yl]-3-(3-methoxyphenyl)-3H-quinazolin-4-one] | 243 to 244 | 
COC(=O)Nc1nc(C)c(-c2nc3ccccc3c(=O)n2-c2cccc(C)c2)s1 | 232 to 233 | 
CCOC(=O)Nc1nc(C)c(-c2nc3ccccc3c(=O)n2-c2cccc(C)c2)s1 | 210 to 211 | 
Cc1cccc(-n2c(-c3sc(Nc4ccccc4)nc3-c3ccccc3)nc3ccccc3c2=O)c1 [Example 187, 3-m-Tolyl-2-(4-phenyl-2-phenylamino-thiazol-5-yl)-3H-quinazolin-4-one] | 105 to 107 | 
CNc1nc(-c2ccccc2)c(-c2nc3ccccc3c(=O)n2-c2ccc(C)cc2)s1 [Example 195, 2-(2-Methylamino-4-phenyl-thiazol-5-yl)-3-p-tolyl-3H-quinazolin-4-one] | 192 to 193 | 
COc1cccc(-n2c(-c3sc(Nc4ccccc4)nc3C)nc3ccccc3c2=O)c1 [Example 210, 2-(4-Methyl-2-phenylamino-thiazol-5-yl)-3-(3-methoxyphenyl)-3H-quinazolin-4-one] | > 275 | 
COc1ccc(-n2c(-c3cc(-c4ccccc4)c(N4CCOCC4)s3)nc3ccccc3c2=O)cc1 [Example 301, 3-(4-Methoxy-phenyl)-2-(5-morpholin-4-yl-4-phenyl-thiophen-2-yl)-3H-quinazolin-4-one] | 164 to 165 | 
COC(=O)Nc1nc(-c2ccccc2)c(-c2nc3ccccc3c(=O)n2-c2cccc(C)c2)s1 [Example 185, [5-(4-Oxo-3-m-tolyl-3,4-dihydro-quinazolin-2-yl)-4-phenyl-thiazol-2-yl]-carbamic acid methyl ester] | 268 to 269 | 
Cc1nc(NC(=O)c2ccco2)sc1C(=O)c1sc(NC(=O)c2ccco2)nc1C [Example 122, Bis-[2-(2-Furoyl-amino)-4-methyl-thiazole-5-yl]-methanone] | 198 to 199 | 
CNc1nc(-c2ccccc2)c(-c2nc3ccccc3c(=O)n2-c2ccc(OC)cc2)s1 [Example 220, 2-(2-Methylamino-4-phenyl-thiazol-5-yl)-3-(4-methoxyphenyl)-3H-quinazolin-4-one] | 235 to 236 | 
COC(=O)Nc1nc(-c2ccccc2)c(-c2nc3ccccc3c(=O)n2-c2ccc(OC)cc2)s1 [Example 219, [5-(4-Oxo-3-(4-methoxyphenyl)-3,4-dihydro-quinazolin-2-yl)-4-phenyl-thiazol-2-yl]-carbamic acid methyl ester] | 272 to 274 | 
CCOC(=O)Nc1nc(-c2ccccc2)c(-c2nc3ccccc3c(=O)n2-c2cccc(OC)c2)s1 [Example 212, [5-(4-Oxo-3-(3-methoxyphenyl)-3,4-dihydro-quinazolin-2-yl)-4-phenyl-thiazol-2-yl]-carbamic acid ethyl ester] | 204 to 205 | 
COc1ccc(-n2c(-c3cc(-c4ccc(Cl)cc4)c(N4CCOCC4)s3)nc3ccccc3c2=O)cc1 [Example 302, 2-[4-(4-Chloro-phenyl)-5-morpholin-4-yl-thiophene-2-yl]-3-(4-methoxy-phenyl)-3H-quinazolin-4-one] | 217 to 218 | 
CCOC(=O)Nc1nc(-c2ccccc2)c(-c2nc3ccccc3c(=O)n2-c2cccc(C)c2)s1 [Example 184, [5-(4-Oxo-3-m-tolyl-3,4-dihydro-quinazolin-2-yl)-4-phenyl-thiazol-2-yl]-carbamic acid ethyl ester] | 261 to 263 | 
Cc1cccc(-n2c(-c3cc(-c4ccc(Cl)cc4)c(N4CCOCC4)s3)nc3ccccc3c2=O)c1 [Example 285, 2-[4-(4-Chloro-phenyl)-5-morpholin-4-yl-thiophen-2-yl]-3-m-tolyl-3H-quinazolin-4-one] | 228 to 230 | 
CNc1nc(-c2ccccc2)c(-c2nc3ccccc3c(=O)n2-c2ccccc2)s1 [Example 320, 2-(2-Methylamino-4-phenyl-thiazole-5-yl)-3-phenyl-3H-quinazolin-4-one] | 224 to 225 | 
Cc1cnc(-c2cc(-c3ccccc3)c(N3CCOCC3)s2)cc1OCC(F)(F)F [Example 41, 4-{5-[5-Methyl-4-(2,2,2-trifluoro-ethoxy)-pyridine-2-yl]-3-phenyl-thiophene-2-yl}-morpholine] | 145 to 147 | 

Molecule | melting point [°C] | also measured
Cc1ccccc1-n1c(-c2cc(-c3ccncc3)c(N3CCOCC3)s2)nc2ccccc2c1=O [Example 283, 2-(5-Morpholin-4-yl-4-pyridin-4-yl-thiophen-2-yl)-3-o-tolyl-3H-quinazolin-4-one] | 208 to 210 | 
COc1ccc(Nc2nc(NC(=O)Nc3ccc(F)cc3)c(-c3cc(C)c(OCC(F)(F)F)cn3)s2)cc1 [Example 367, 1-(4-Fluoro-phenyl)-3-{2-(4-methoxy-phenylamino)-5-[4-methyl-5-(2,2,2-trifluoro-ethoxy)-pyridin-2-yl]-thiazol-4-yl}-urea] | > 280 | 
COc1cccc(-n2c(-c3cc(-c4ccccc4)c(N4CCOCC4)s3)nc3ccccc3c2=O)c1 [Example 299, 3-(3-Methoxy-phenyl)-2-(5-morpholin-4-yl-4-phenyl-thiophen-2-yl)-3H-quinazolin-4-one] | 269 to 272 | 
Cc1ccc(-n2c(-c3sc(NC(=O)c4ccccc4)nc3-c3ccccc3)nc3ccccc3c2=O)cc1 [Example 197, N-[5-(4-Oxo-3-p-tolyl-3,4-dihydro-quinazolin-2-yl)-4-phenyl-thiazole-2-yl]benzamide] | > 275 | 
CNc1nc(-c2ccccc2)c(-c2nc3ccccc3c(=O)n2-c2ccccc2C)s1 [Example 173, 2-(2-methylamino-4-phenyl-thiazol-5-yl)-3-o-tolyl-3H-quinazolin-4-one] | 220 to 225 | 
Cc1ccccc1-n1c(-c2sc(NC(=O)c3ccccc3)nc2-c2ccccc2)nc2ccccc2c1=O [Example 175, N-[5-(4-Oxo-3-o-tolyl-3,4-dihydro-quinazolin-2-yl)-4-phenyl-thiazole-2-yl]benzamide] | > 275 | 
COc1ccccc1-n1c(-c2sc(Nc3ccccc3)nc2C)nc2ccccc2c1=O [Example 202, 2-(4-Methyl-2-phenylamino-thiazol-5-yl)-3-(2-methoxyphenyl)-3H-quinazolin-4-one] | 169 to 170 | 
COc1ccc(-n2c(-c3sc(Nc4ccccc4)nc3C)nc3ccccc3c2=O)cc1 [Example 216, 2-(4-Methyl-2-phenylamino-thiazol-5-yl)-3-(4-methoxyphenyl)-3H-quinazolin-4-one] | 265 to 266 | 
COC(=O)Nc1nc(-c2ccccc2)c(-c2nc3ccccc3c(=O)n2-c2ccc(C)cc2)s1 [Example 194, [5-(4-Oxo-3-p-tolyl-3,4-dihydro-quinazolin-2-yl)-4-phenyl-thiazol-2-yl]-carbamic acid methyl ester] | > 275 | 
COC(=O)Nc1nc(-c2ccccc2)c(-c2nc3ccccc3c(=O)n2-c2ccccc2OC)s1 [Example 204, [5-(4-Oxo-3-(2-methoxyphenyl)-3,4-dihydro-quinazolin-2-yl)-4-phenyl-thiazol-2-yl]-carbamic acid methyl ester] | 228 to 230 | 
COC(=O)Nc1nc(C)c(-c2nc3ccccc3c(=O)n2-c2ccc(C(C)=O)cc2)s1 [Example 260, (4-Methyl-5-(4-oxo-3-(4-acetyl-phenyl)-3,4-dihydro-quinazolin-2-yl)-thiazol-2-yl)-carbamic acid methyl ester] | 232 to 234 | 
Cc1ccc(C(=O)Nc2nc(-c3ccccc3)c(-c3nc4ccccc4c(=O)n3-c3ccccc3)s2)cc1 [Example 163, 4-Methyl-N-[5-(4-oxo-3-phenyl-3,4-dihydroquinazolin-2-yl)-4-phenyl-thiazol-2-yl]-benzamide] |  | inhibition at 1 µM (AP-1): 68%; inhibition at 1 µM (NF-κB): 88%; inhibition in vivo at 50 mg/kg (carageenan-induced edema): 77%
CCOC(=O)Nc1nc(-c2ccccc2)c(-c2nc3ccccc3c(=O)n2-c2ccc(OC)cc2)s1 [Example 218, [5-(4-Oxo-3-(4-methoxyphenyl)-3,4-dihydro-quinazolin-2-yl)-4-phenyl-thiazol-2-yl]-carbamic acid ethyl ester] |  | inhibition at 1 µM (AP-1): 24%; inhibition at 1 µM (NF-κB): 22%; inhibition in vivo at 50 mg/kg (carageenan-induced edema): 20%
{5-[3-(4-Methoxy-phenyl)-4-oxo-3,4-dihydro-quinazolin-yl]-thiazol-2-yl}-carbamic acid ethyl ester [Example 215] |  | AP-1 inhibition @ 1 uM (AP-1): −6; NFkB inhibition @ 1 uM (NF-κB): 34; % Protection (carageenan-induced edema): 25%
O=c1c2ccccc2nc(-c2sc(Nc3ccccc3)nc2-c2ccccc2)n1-c1ccccc1 [Example 161, 3-Phenyl-2-(4-phenyl-2-phenylamino-thiazol-5-yl)-3H-quinazolin-4-one] |  | inhibition at 1 µM (AP-1): 7%; inhibition at 1 µM (NF-κB): 80%; inhibition in vivo at 50 mg/kg (carageenan-induced edema): 60%
O=c1c2ccccc2nc(-c2sc(Nc3ccccc3)nc2-c2ccccc2)n1-c1ccc(Cl)cc1 [Example 252, 3-(4-Chloro-phenyl)-2-(4-phenyl-2-phenylamino-thiazol-5-yl)-3H-quinazolin-4-one] |  | inhibition at 1 µM (AP-1): 21%; inhibition at 1 µM (NF-κB): 80%; inhibition in vivo at 50 mg/kg (carageenan-induced edema): 81%
